Test results reported in patent US20100227841A1, “Patient populations and treatment methods” (Harbor BioSciencs, Inc., priority 2008, published 2010).

Columns and labels:
[1] = system: patients having type 2 diabetes; assay: Phase II double-blinded placebo controlled 12-week trial in type 2 diabetes patients on metformin; format: in vivo, human; details: for Fasting C-peptide Change from baseline / Fasting Glucose Change from baseline / HbA1c Change from baseline / LDL Cholesterol change from baseline / Total Cholesterol change from baseline / Weight change from baseline / HOMA2% insulin sensitivity change from baseline / HOMA2% β cell function change from baseline / HOMA2 Insulin resistance change from baseline: 5 mg twice per day + metformin; for HOMA2% insulin sensitivity change from baseline / HOMA2% β cell function change from baseline / HOMA2 Insulin resistance change from baseline: calculated using C-peptide
Protocol: Patients having type 2 diabetes were evaluated for their baseline BMI and levels of MCP1, insulin and C peptide. The effect of treatment with 17α-ethynylandrost-5-ene-3β,7β,17β-triol (5 mg administered orally twice per day for 84 days) on total cholesterol, LDL cholesterol, hemoglobin A1c (HbA1c) plus metformin (500-2250 mg/day, which was administered in one or two doses per day for 84 days), weight, and other biological responses is shown in the tables below. The effect of treatment in all treated patients was compared with the effect of the same treatment in the responder population, characterized as having a BMI>27.99 (overweight or obese), insulin resistant (C-peptide >1.99 ng/mL or essentially normal insulin >3.99 μU/mL to about 29 μU/mL with hyperglycemia), and having an elevated serum MCP1>399.99 pg/mL, indicating a state of systemic inflammation. The responder patients were a subset of all patients were treated.
The Phase II, double-blinded placebo controlled 12-week dosing trial of example 4 enrolled 96 subjects with a hemoglobin A1c (HbA1c) level in excess of 7.5 percent and were being treated with a stable metformin dose as described above. The primary objectives of this trial were to evaluate the safety and tolerance of 17α-ethynylandrost-5-ene-3β,7β,17β-triol, 10 mg per day (5 mg twice daily), compared to placebo from baseline to week 12 and to evaluate the change in HbA1c from baseline to week 12 in the 17α-ethynylandrost-5-ene-3β,7β,17β-triol treated group when compared to the placebo group.
A retrospective analysis of data was performed on the subpopulation of patients that represented an obese, insulin-resistant, diabetic population. This analysis included patients who met the following criteria at baseline: BMI greater than or equal to 28; fasting plasma insulin levels greater than or equal to 4 μU/mL; fasting plasma C-peptide levels greater than or equal to 2 ng/mL; and serum monocyte chemoattractant protein-1 (MCP1) levels greater than or equal to 400 pg/mL. This phenotype represented 35% of all 89 patients with values reported for these parameters at baseline. Twenty-two individuals with this phenotype completed the 84 days of dosing. […] These changes in secondary indicators of activity were consistent with the observed decreases in HbA1c and glucose in this diabetic subpopulation.

[2] = system: RAW264.7 macrophage cells; assay: Macrophage chemotaxis assay with 3T3-L1 adipocyte conditioned medium; format: cell-based; details: p<0.05
Protocol: The macrophage chemotaxis assay was conducted with differentiated 3T3-L1 adipocytes (day +11 post differentiation) incubated for 24 hours with compounds (10 ng/mL TNFα with or without 100 nM 17α-ethynylandrost-5-ene-3β,7β,17β-triol) or vehicle in DMEM with 0.2% FFA- and endotoxin-free BSA. Conditioned medium (CM) was collected and kept frozen in single-use aliquots. For the chemotaxis assay, 600 μl/well of adipocyte CM was aliquoted into 24-well tissue culture plates. 2×10^5 RAW264.7 macrophage cells resuspended in DMEM containing 0.2% BSA were plated in the upper transwell chamber ([…], 24-transwell format; Corning, Lowell, Mass.). After 3 hours of migration, the RAW264.7 cells were fixed in formalin and stained with DAPI. Cells in the upper chamber that had not migrated were removed. Cells found on the filter facing the lower chamber were counted as cells having performed chemotaxis and quantified with the Simple PCI imaging software (Compix Inc., Cranberry Township, Pa.).

type 2 diabetes patients = assay: Phase 2 monotherapy protocol in treatment naive type 2 diabetes patients; format: in vivo, human
Protocol: A phase 2 clinical treatment protocol was conducted in type 2 diabetes patients using a monotherapy consisting of 17α-ethynylandrost-5-ene-3β,7β,17β-triol. The patients had not been treated with another antidiabetic agent or any insulin sensitizer such as metformin for at least 90 days before the start of dosing. […] The patients (n=51) received 10 mg/day of 17α-ethynylandrost-5-ene-3β,7β,17β-triol (5 mg twice per day) for 84 days and were then followed until day 112. Effects of treatment were examined in subsets of patients having differing BMI values.

[3] = retrospective subpopulation, 84 days, compared to placebo, non-significant
[4] = TNFα-treated adipocyte CM, adipocytes pretreated

C#C[C@]1(O)CC[C@H]2[C@@H]3[C@@H](O)C=C4C[C@@H](O)CC[C@]4(C)[C@H]3CC[C@@]21C [17α-ethynylandrost-5-ene-3β,7β,17β-triol]
Fasting C-peptide Change from baseline ([1]; All patients, day 29): -0.2 ng/mL
Fasting Glucose Change from baseline ([1]; All patients, day 29): -7.5 mg/dL
HbA1c Change from baseline ([1]; All patients, day 29): 0 % Hb
LDL Cholesterol change from baseline ([1]; All patients, day 29): 0.5 mg/dL
Total Cholesterol change from baseline ([1]; All patients, day 29): -0.5 mg/dL
Weight change from baseline ([1]; All patients, day 29): -0.4136 kg
Fasting C-peptide Change from baseline ([1]; All patients, day 57): -0.2 ng/mL
Fasting Glucose Change from baseline ([1]; All patients, day 57): 0 mg/dL
HbA1c Change from baseline ([1]; All patients, day 57): 0.1 % Hb
LDL Cholesterol change from baseline ([1]; All patients, day 57): -2 mg/dL
Total Cholesterol change from baseline ([1]; All patients, day 57): -5.5 mg/dL
Weight change from baseline ([1]; All patients, day 57): -0.4546 kg
Fasting C-peptide Change from baseline ([1]; All patients, day 84): -0.05 ng/mL
Fasting Glucose Change from baseline ([1]; All patients, day 84): -4.25 mg/dL
HbA1c Change from baseline ([1]; All patients, day 84): 0.15 % Hb
LDL Cholesterol change from baseline ([1]; All patients, day 84): 4.5 mg/dL
Total Cholesterol change from baseline ([1]; All patients, day 84): 3 mg/dL
Weight change from baseline ([1]; All patients, day 84): -0.03864 kg
HOMA2% insulin sensitivity change from baseline ([1]; All patients, day 29): 4.2 % S
HOMA2% β cell function change from baseline ([1]; All patients, day 29): 0.8 % b
HOMA2 Insulin resistance change from baseline ([1]; All patients, day 29): −0.1453 IR
HOMA2% insulin sensitivity change from baseline ([1]; All patients, day 57): 1.75 % S
HOMA2% β cell function change from baseline ([1]; All patients, day 57): −2.15 % b
HOMA2 Insulin resistance change from baseline ([1]; All patients, day 57): −0.0518 IR
HOMA2% insulin sensitivity change from baseline ([1]; All patients, day 84): −1.45 % S
HOMA2% β cell function change from baseline ([1]; All patients, day 84): 5.6 % b
HOMA2 Insulin resistance change from baseline ([1]; All patients, day 84): 0.02309 IR
HbA1c Change from baseline ([1]; Responder patients (BMI>27.99, insulin resistant, MCP1>399.99 pg/mL), day 29): −0.15 % Hb
Fasting C-peptide Change from baseline ([1]; Responder patients, day 29): -0.2 ng/mL
Fasting Glucose Change from baseline ([1]; Responder patients, day 29): -17.5 mg/dL
LDL Cholesterol change from baseline ([1]; Responder patients, day 29): -8.5 mg/dL
Total Cholesterol change from baseline ([1]; Responder patients, day 29): -0.5 mg/dL
Weight change from baseline ([1]; Responder patients, day 29): -0.3727 kg
Fasting C-peptide Change from baseline ([1]; Responder patients, day 57): 0 ng/mL
Fasting Glucose Change from baseline ([1]; Responder patients, day 57): -7 mg/dL
HbA1c Change from baseline ([1]; Responder patients, day 57): −0.1 % Hb
LDL Cholesterol change from baseline ([1]; Responder patients, day 57): -11.5 mg/dL
Total Cholesterol change from baseline ([1]; Responder patients, day 57): -18.5 mg/dL
Weight change from baseline ([1]; Responder patients, day 57): -0.925 kg
Fasting C-peptide Change from baseline ([1]; Responder patients, day 84): 0.25 ng/mL
Fasting Glucose Change from baseline ([1]; Responder patients, day 84): -13 mg/dL
HbA1c Change from baseline ([1]; Responder patients, day 84): −0.425 % Hb
LDL Cholesterol change from baseline ([1]; Responder patients, day 84): -7.5 mg/dL
Total Cholesterol change from baseline ([1]; Responder patients, day 84): -14.5 mg/dL
Weight change from baseline ([1]; Responder patients, day 84): -1.33 kg
HOMA2% insulin sensitivity change from baseline ([1]; Responder patients, day 29): 3.9 % S
HOMA2% β cell function change from baseline ([1]; Responder patients, day 29): 2.1 % b
HOMA2 Insulin resistance change from baseline ([1]; Responder patients, day 29): −0.3061 IR
HOMA2% insulin sensitivity change from baseline ([1]; Responder patients, day 57): 1 % S
HOMA2% β cell function change from baseline ([1]; Responder patients, day 57): 5.3 % b
HOMA2 Insulin resistance change from baseline ([1]; Responder patients, day 57): −0.04016 IR
HOMA2% insulin sensitivity change from baseline ([1]; Responder patients, day 84): −4.4 % S
HOMA2% β cell function change from baseline ([1]; Responder patients, day 84): 16.3 % b
HOMA2 Insulin resistance change from baseline ([1]; Responder patients, day 84): 0.2265 IR
HbA1c, treatment vs placebo ([1]; entire 72 patient population that completed dosing on day 84): no statistical difference
decrease in HbA1c ([1]; retrospective subpopulation (BMI>=28, insulin>=4 μU/mL, C-peptide>=2 ng/mL, MCP1>=400 pg/mL), 84 days, compared to placebo, p=0.06): −0.53%
decrease in HOMA2 insulin resistance [1, 3]: −0.65 IR
decrease in fasting plasma C-peptide [1, 3]: -0.43 ng/mL
decrease in fasting plasma insulin [1, 3]: −0.48 μU/mL
decrease in fructosamine [1, 3]: -25.75 µmol/L
increase in HOMA2 beta cell function [1, 3]: 17.95 % B
increase in HOMA2 insulin sensitivity [1, 3]: 11.3 % S
decrease in fasting plasma glucose ([1]; retrospective subpopulation, 84 days, compared to placebo, p=0.09): -28.75 mg/dL
sensitivity analysis using last observation carried forward ([1]; subpopulation individuals who completed at least 29 days of dosing): showed improvement
macrophage secretion of CCL5/RANTES [2, 4]: significantly decreased
macrophage secretion of MCP-1/CCL2 [2, 4]: significantly decreased
reduction of macrophage migration stimulated by CM from TNFα-treated adipocytes ([2]; adipocytes pretreated with 100 nM): ~30%
C-reactive protein (type 2 diabetes patients; BMI greater than 31.3 kg/m^2, day 57, p=0.053): trend to decreased
patients with decreased HbA1c to <7% (type 2 diabetes patients; BMI greater than 31.3 kg/m^2, day 84, placebo 0/14): 2/9
decreases in serum MCP-1 (type 2 diabetes patients; BMI greater than 31.3 kg/m^2, days 29, 57 and 84): > 600 pg/mL
observed effects in lower BMI subset (type 2 diabetes patients; patients having a BMI of less than about 31): less pronounced
HbA1c decrease (type 2 diabetes patients; patients with BMI greater than 31.3 kg/m^2 (n=22), 10 mg/day for 84 days, day 112, p=0.041): 1.1%
